Experimental data taken from the NIST ThermoML archive (doi:10.1021/acs.jced.6b00202).
Numbers after ± are expanded uncertainties.

COC(C)(C)C [2-methoxy-2-methylpropane]
Liquid, Brillouin light scattering
Settings	speed of sound [m/s]
388.22 K, 1000 kPa	646.4 ± 6.7
388.24 K, 2500 kPa	670.7 ± 6.9
388.24 K, 10000 kPa	768.1 ± 8
388.25 K, 8500 kPa	751.1 ± 7.9
393.11 K, 5500 kPa	691.8 ± 7.4
393.13 K, 1000 kPa	619 ± 6.4
393.13 K, 4000 kPa	669.1 ± 6.9
393.13 K, 8500 kPa	736.3 ± 7.7
393.16 K, 2500 kPa	643.2 ± 6.7
393.22 K, 7000 kPa	714.5 ± 7.6
393.22 K, 10000 kPa	753.4 ± 7.8
398.1 K, 5500 kPa	671.4 ± 7.2
398.11 K, 1000 kPa	594.9 ± 6.2
398.18 K, 2500 kPa	624.4 ± 6.5
398.18 K, 4000 kPa	647.1 ± 6.7
398.2 K, 8500 kPa	715.9 ± 7.6
398.24 K, 10000 kPa	733.5 ± 7.7
398.25 K, 7000 kPa	692.8 ± 7.4
403.07 K, 7000 kPa	672.1 ± 7.3
403.11 K, 2500 kPa	602.6 ± 6.3
403.12 K, 1000 kPa	574.7 ± 6
403.12 K, 4000 kPa	627.2 ± 6.5
403.14 K, 5500 kPa	649.2 ± 7
403.14 K, 10000 kPa	716.1 ± 7.5
403.16 K, 8500 kPa	697.5 ± 7.4
408.09 K, 7000 kPa	657.5 ± 7.1
408.16 K, 4000 kPa	605.6 ± 6.3
408.19 K, 5500 kPa	631.8 ± 7
408.21 K, 8500 kPa	679.5 ± 7.2
408.23 K, 2500 kPa	576.4 ± 6
408.24 K, 10000 kPa	697.8 ± 7.3
413.06 K, 10000 kPa	682.3 ± 7.2
413.08 K, 4000 kPa	585.4 ± 6.1
413.14 K, 8500 kPa	661.5 ± 7.1
413.16 K, 5500 kPa	612.9 ± 6.8
413.19 K, 2500 kPa	557.9 ± 5.9
413.24 K, 7000 kPa	638.1 ± 7
418.07 K, 4000 kPa	565.2 ± 5.9
418.07 K, 7000 kPa	617.5 ± 6.8
418.08 K, 10000 kPa	661.5 ± 7.2
418.11 K, 8500 kPa	639.1 ± 6.9
418.19 K, 2500 kPa	535.7 ± 5.7
418.23 K, 5500 kPa	588.6 ± 6.6
423.05 K, 7000 kPa	595.1 ± 6.7
423.06 K, 2500 kPa	511.7 ± 5.5
423.06 K, 4000 kPa	541.9 ± 5.8
423.11 K, 8500 kPa	624.1 ± 6.9
423.12 K, 10000 kPa	647.8 ± 6.9
423.19 K, 5500 kPa	571.4 ± 6.5
428.11 K, 2500 kPa	485.7 ± 5.3
428.14 K, 5500 kPa	549.7 ± 6.3
428.15 K, 7000 kPa	575.1 ± 6.6
428.18 K, 4000 kPa	520.9 ± 5.6
428.19 K, 8500 kPa	605.5 ± 6.7
428.2 K, 10000 kPa	625.5 ± 6.8
433.05 K, 2500 kPa	463.5 ± 5.1
433.05 K, 7000 kPa	560.1 ± 6.4
433.08 K, 10000 kPa	610.8 ± 6.6
433.18 K, 4000 kPa	498.5 ± 5.4
433.22 K, 5500 kPa	530.9 ± 6.3
433.22 K, 8500 kPa	586.5 ± 6.5
438.11 K, 2500 kPa	443 ± 5
438.13 K, 7000 kPa	540.4 ± 6.4
438.13 K, 10000 kPa	590.9 ± 6.5
438.14 K, 5500 kPa	507.9 ± 6.2
438.16 K, 8500 kPa	569 ± 6.4
438.24 K, 4000 kPa	477.2 ± 5.2
443.06 K, 4000 kPa	454.3 ± 5
443.08 K, 5500 kPa	487.7 ± 6.1
443.12 K, 10000 kPa	575 ± 6.5
443.14 K, 8500 kPa	548.7 ± 6.3
443.18 K, 2500 kPa	418.1 ± 4.7
443.23 K, 7000 kPa	519.9 ± 6.2
448.06 K, 2500 kPa	394.3 ± 4.6
448.07 K, 5500 kPa	467.5 ± 5.9
448.16 K, 4000 kPa	435.5 ± 4.9
448.22 K, 7000 kPa	500.2 ± 6.1
448.23 K, 8500 kPa	529.7 ± 6.2
448.23 K, 10000 kPa	557.1 ± 6.4
453.07 K, 5500 kPa	448.8 ± 6
453.18 K, 4000 kPa	411.5 ± 4.7
453.18 K, 10000 kPa	544 ± 6.2
453.2 K, 2500 kPa	372.4 ± 4.4
453.21 K, 8500 kPa	515.2 ± 6.2
453.24 K, 7000 kPa	483.8 ± 6.1
458.06 K, 4000 kPa	389.5 ± 4.5
458.08 K, 7000 kPa	464.6 ± 6.1
458.12 K, 10000 kPa	524.8 ± 6.1
458.18 K, 2500 kPa	350.8 ± 4.2
458.22 K, 8500 kPa	497.9 ± 6
458.24 K, 5500 kPa	426.1 ± 5.9
463.1 K, 10000 kPa	507.9 ± 5.9
463.13 K, 2500 kPa	326.7 ± 4.1
463.14 K, 8500 kPa	480.9 ± 5.9
463.16 K, 5500 kPa	409.6 ± 5.9
463.23 K, 4000 kPa	368.2 ± 4.4
463.25 K, 7000 kPa	445.2 ± 5.9
468.06 K, 7000 kPa	427.3 ± 5.8
468.1 K, 10000 kPa	491.9 ± 6.2
468.15 K, 8500 kPa	459.5 ± 5.8
468.19 K, 4000 kPa	347.2 ± 4.3
468.22 K, 5500 kPa	389.7 ± 5.9
473.07 K, 4000 kPa	324.5 ± 4.1
473.11 K, 10000 kPa	479 ± 6.2
473.12 K, 8500 kPa	443.1 ± 5.9
473.15 K, 7000 kPa	408.5 ± 5.9
473.22 K, 5500 kPa	366 ± 5.9

Settings	speed of sound [m/s]
393.16 K, Liquid, Brillouin Light Scattering	609.1 ± 6.2
398.07 K, Gas, Brillouin light scattering	170 ± 2
398.11 K, Liquid, Brillouin Light Scattering	580.1 ± 5.9
403.24 K, Liquid, Brillouin Light Scattering	558 ± 5.7
408.22 K, Gas, Brillouin light scattering	167.8 ± 2
408.23 K, Liquid, Brillouin Light Scattering	537.6 ± 5.5
413.2 K, Liquid, Brillouin Light Scattering	515.8 ± 5.3
418.16 K, Gas, Brillouin light scattering	164.7 ± 1.9
418.24 K, Liquid, Brillouin Light Scattering	494.4 ± 5.1
423.15 K, Liquid, Brillouin Light Scattering	476 ± 4.9
428.21 K, Gas, Brillouin light scattering	161.2 ± 1.9
428.24 K, Liquid, Brillouin Light Scattering	453.8 ± 4.7
433.05 K, Liquid, Brillouin Light Scattering	430.3 ± 4.4
438.17 K, Gas, Brillouin light scattering	155.3 ± 1.8
438.19 K, Liquid, Brillouin Light Scattering	405.8 ± 4.2
443.09 K, Liquid, Brillouin Light Scattering	387.3 ± 4
448.13 K, Gas, Brillouin light scattering	148.4 ± 1.8
448.23 K, Liquid, Brillouin Light Scattering	360.3 ± 3.8
453.1 K, Liquid, Brillouin Light Scattering	339.5 ± 3.6
458.19 K, Liquid, Brillouin Light Scattering	313.6 ± 3.3
458.29 K, Gas, Brillouin light scattering	139.8 ± 1.7
463.17 K, Gas, Brillouin light scattering	135.7 ± 1.7
463.23 K, Liquid, Brillouin Light Scattering	287.1 ± 3.1
468.18 K, Liquid, Brillouin Light Scattering	265 ± 2.9
468.26 K, Gas, Brillouin light scattering	130.6 ± 1.6
473.15 K, Gas, Brillouin light scattering	124.5 ± 1.6
473.17 K, Liquid, Brillouin Light Scattering	236.5 ± 2.6
478.08 K, Gas, Brillouin light scattering	119 ± 1.6
478.08 K, Liquid, Brillouin Light Scattering	206.1 ± 2.3
483.2 K, Liquid, Brillouin Light Scattering	177.7 ± 2.1
483.29 K, Gas, Brillouin light scattering	111.8 ± 1.5
488.11 K, Liquid, Brillouin Light Scattering	142.8 ± 1.9
488.15 K, Gas, Brillouin light scattering	104.9 ± 1.5
493.06 K, Liquid, Brillouin Light Scattering	103.7 ± 1.6
493.15 K, Gas, Brillouin light scattering	96.9 ± 1.4
